Patent US20030045680A1, “Peptidic modulators of the androgen receptor” (Praecis Pharmaceuticals Inc., priority 2001, published 2003)
Square brackets hold non-standard residues; d marks the D form. Peptide text beside a SMILES is read from it.

T1: glutathione S-transferase/human androgen receptor DNA binding domain (amino acids 505-635) (human), P10275
T1 chain: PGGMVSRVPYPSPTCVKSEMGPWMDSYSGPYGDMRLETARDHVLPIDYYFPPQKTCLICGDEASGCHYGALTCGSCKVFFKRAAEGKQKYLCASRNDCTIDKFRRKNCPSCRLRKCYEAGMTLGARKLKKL

T2: glutathione S-transferase/human androgen receptor DNA binding domain (amino acids 505-635) (GST-DBD) (Homo sapiens, UniProt P10275)
T2 construct: gift of Dr. Steven Balk (neither purchased nor made by the applicant)
T2 sequence (P10275 505-635): T1 chain

T3: glutathione S-transferase/human androgen receptor DNA binding domain (amino acids 505-635) (human, UniProt P10275 505-635)
T3 construct: Fusion protein obtained from Dr. Steven Balk; also called GST-DBD; not shown: glutathione S-transferase fusion partner
T3 sequence (looked up): T1 chain

B1: Ac-FMSETQSSPTK-NH2 (peptide)
peptide: Ac-FMSETQSSPTK-NH2
notes: synthetic peptide of the series based on amino acids 423-548 of ARIP3; also called Cmpd No. 11
B2: Ac-FMSETQSSPTKGVLMYQPSSV-NH2 (peptide)
peptide: Ac-FMSETQSSPTKGVLMYQPSSV-NH2
notes: synthetic peptide of the series based on amino acids 423-548 of ARIP3; also called Cmpd No. 5
B3: Ac-PAAIPPSLTDYSVPFHHTPVSSMSSDL-NH2 (peptide)
peptide: Ac-PAAIPPSLTDYSVPFHHTPVSSMSSDL-NH2
notes: synthetic peptide of the series based on amino acids 423-548 of ARIP3; also called Cmpd No. 8
B4: Ac-TIESSSD-NH2 (peptide)
peptide: Ac-TIESSSD-NH2
notes: truncation of Cmpd 10; also called Cmpd No. 29
B5: Ac-TIESSS-NH2 (peptide)
peptide: Ac-TIESSS-NH2
notes: truncation of Cmpd 10; also called Cmpd No. 47
B6: Ac-LTIESSSDEE-NH2 (peptide)
peptide: Ac-LTIESSSDEE-NH2
notes: synthetic peptide of the series based on amino acids 423-548 of ARIP3; also called Cmpd No. 10
B7: Ac-SVPFHHTPVSSMSSDL-NH2 (peptide)
peptide: Ac-SVPFHHTPVSSMSSDL-NH2
notes: synthetic peptide of the series based on amino acids 423-548 of ARIP3; also called Cmpd No. 12
B8: Ac-IESSSDE-NH2 (peptide)
peptide: Ac-IESSSDE-NH2
notes: truncation of Cmpd 10; also called Cmpd No. 53
B9: Ac-SVPFHHTPVS-NH2 (peptide)
peptide: Ac-SVPFHHTPVS-NH2
notes: synthetic peptide of the series based on amino acids 423-548 of ARIP3; also called Cmpd No. 13
B10: Ac-LTIESSSDEEEDPPAKRKAIF-NH2 (peptide)
peptide: Ac-LTIESSSDEEEDPPAKRKAIF-NH2
notes: synthetic peptide of the series based on amino acids 423-548 of ARIP3; also called Cmpd No. 3
B11: Ac-IESFSD-NH2 (peptide)
peptide: Ac-IESFSD-NH2
notes: variant of Cmpd 49 (IESSSD); also called Cmpd No. 34
B12: Ac-IESSSD-NH2 (peptide)
peptide: Ac-IESSSD-NH2
notes: truncation of Cmpd 10; also called Cmpd No. 49
B13: Ac-IESVSD-NH2 (peptide)
peptide: Ac-IESVSD-NH2
notes: variant of Cmpd 49 (IESSSD); also called Cmpd No. 36
B14: Ac-KVESSSVFSKPASVTVASDA-NH2 (peptide)
peptide: Ac-KVESSSVFSKPASVTVASDA-NH2
notes: synthetic peptide of the series based on amino acids 423-548 of ARIP3; also called Cmpd No. 1
B15: Ac-LTIESSSDE-NH2 (peptide)
peptide: Ac-LTIESSSDE-NH2
notes: truncation of Cmpd 10; also called Cmpd No. 25

Molecular target: T1, glutathione S-transferase/human …
Assay: not given
Details: not given

H-YGRKKRRQRRRGGGGLTIESSSDEE-NH2 [H-…-NH2] showed an IC50 of 6.5 µM.

Molecular target: T2, glutathione S-transferase/human androgen receptor DNA binding domain (amino acids 505-635) (GST-DBD)
Assay: ARE binding assay (competition binding, electrochemiluminescence)
Details: not given
Protocol: Anti-glutathione S-transferase monoclonal antibody was purchased from Upstate Biotechnology, Inc., Lake Placid, N.Y. (catalogue #05-311). Prior to ruthenium labeling, 1 mg/ml antibody was dialyzed against phosphate-buffered saline, pH 7.2, for 24 hours at 4° C. A 0.5 mg of antibody was incubated with 18.8 μg Origen TAG-succinimidyl ester (IGEN, International, Inc. Gaithersburg, Md., catalogue # 110034) for 1 hour at room temperature in the dark. The reaction was stopped with 20 μl 2M glycine for 10 minutes in the dark. Free label was removed with a NAP-5 column. Protein concentration was determined using the micro-BCA assay (catalogue #23235ZZ) from Pierce, Rockford, Ill.
Oligonucleotides were purchased from Integrated DNA Technologies, Inc., Coralville, Iowa. One nmole of each complementary oligonucleotide, Biotin-5′-[…]-3′ (SEQ ID NO:54) and 5′-[…]-3′ (SEQ ID NO:55) was added to 10 μl water and heated to 95° C. for 2 minutes. NaCl was added to a final concentration of 50 mM and the oligonucleotides were allowed to anneal at room temperature. After 1 hour, the annealed oligonucleotides were resuspended in 1 ml water.
The glutathione S-transferase/human androgen receptor DNA binding domain (amino acids 505-635) (GST-DBD) was obtained from Dr. Steven Balk. Synthesis of similar androgen receptor fusion proteins has been previously described (Sun, Z., Pan, J. and Balk, S. P. (1997) Nucleic Acids Research 25:3318-3325). The competition binding assay was performed in phosphate-buffered saline, pH 7.2, containing 100 ng/ml poly dI/dC (Sigma-Aldrich Co., St. Louis, Mo., catalogue #P4929) in a final volume of 0.2 ml by incubating 3 ng oligonucleotide, 200 ng GST-DBD, 30 ng antibody and the desired concentration of test compound. After 1.5 hours in the dark at room temperature, 12.5 μg streptavidin-coated M-280 Dynabeads (IGEN International, Inc. Gaithersburg, Md., catalogue # 402-175-02) were added and incubated while shaking for 30 minutes in the dark. Plates were analyzed on an IGEN M8 Electrochemiluminescence Detection Unit (IGEN, International, Inc. Gaithersburg, Md.).

Molecule “H-YGRKKRRQRRRGGGGLTIESSSDEE-NH2 [compound 54]” has an IC50 of 6.5 µM.

Same assay, conditions: inhibition of binding of androgen receptor DNA binding domain to biotinylated ARE oligonucleotide; average where more than one assay, replications in parentheses; read-out: IC50

`CC[C@@H](C)[C@@H](NC(C)=O)C(=O)N[C@H](CCC(=O)O)C(=O)N[C@H](CO)C(=O)N[C@H](CO)C(=O)N[C@H](CO)C(=O)N[C@H](CC(=O)O)C(N)=O` [compound 38, Ac-iesssd-NH2] (Ac-[dI][dE][dS][dS][dS][dD]-NH2) and `CC[C@@H](C)[C@@H](NC(=O)[C@@H](CCC(=O)O)NC(=O)[C@@H](CO)NC(=O)[C@@H](CO)NC(=O)[C@@H](CO)NC(=O)[C@@H](CC(=O)O)NC(C)=O)C(N)=O` [compound 39, Ac-dsssei-NH2] (Ac-[dD][dS][dS][dS][dE][dI]-NH2) are the same in IC50: 20 µM for the first, 20 µM for the second.

“Ac-ATIESSSDEE-NH2 [compound 16, Ac-ATIESSSDEE-NH2]” and “Ac-DSSSEI-NH2 [compound 37, Ac-DSSSEI-NH2]” are within 1.5-fold of each other in IC50: 25 µM for the first, 20 µM for the second.

First: Ac-EDPPAKRKAIFMSETQSSPTK-NH2 [compound 4]
Second: Ac-ESSSDE-NH2 [compound 50, Ac-ESSSDE-NH2]
The IC50 of the first is higher: over 50 µM for the first, 11 µM for the second.

“Ac-IASASD-NH2 [compound 33, Ac-IASASD-NH2]” and “Ac-IESASD-NH2 [compound 32, Ac-IESASD-NH2]” are the same in IC50: 20 µM for the first, 20 µM for the second.

Compared with “Ac-IESLSD-NH2 [compound 35, Ac-IESLSD-NH2]”, “Ac-IESSSDEE-NH2 [compound 48, Ac-IESSSDEE-NH2]” is higher in IC50: 20 µM for the first, over 50 µM for the second.

“Ac-KGVLMYQSSVRVPSVTSVDP-NH2 [compound 6]” and “Ac-KPASVTVASDASKKIDVIDL-NH2 [compound 2]” cannot be ordered by IC50: over 50 µM for the first, over 50 µM for the second.

Going from “Ac-KVESSSVFS-NH2 [compound 9, Ac-KVESSSVFS-NH2]” to “Ac-LAIESSSDEE-NH2 [compound 17, Ac-LAIESSSDEE-NH2]”, the IC50 falls from over 50 µM to 25 µM. The second is the more potent here.

First: Ac-LTAESSSDEE-NH2 [compound 18, Ac-LTAESSSDEE-NH2]
Second: Ac-LTIESS-NH2 [compound 26, Ac-LTIESS-NH2]
The IC50 of the first is lower: 25 µM for the first, over 50 µM for the second. The first is the more potent here.

First: Ac-LTIESSSAEE-NH2 [compound 22, Ac-LTIESSSAEE-NH2]
Second: Ac-LTIESSSDEE-OH [compound 30, Ac-LTIESSSDEE-OH]
The IC50 of the first is 2.7-fold higher: 20 µM for the first, 7.4 µM for the second.

“Ac-LTIESSSDEEEDPPAKRKAIF-NH2 [compound 3]” and “Ac-SSSDEE-NH2 [compound 51, Ac-SSSDEE-NH2]” are the same in IC50: 22 µM for the first, 22 µM for the second.

“Ac-TIESSSDE-NH2 [compound 28, Ac-TIESSSDE-NH2]” and “Ac-TIESSSDEE-NH2 [compound 27, Ac-TIESSSDEE-NH2]” are the same in IC50: 22 µM for the first, 22 µM for the second.

First: Ac-TPVSSMSSDL-NH2 [compound 14, Ac-TPVSSMSSDL-NH2]
Second: Ac-VRVPSVTSVDPAAIPPSLTDY-NH2 [compound 7]
The IC50 of the first is lower: 7.4 µM for the first, over 50 µM for the second.

“H-LTIESSSDEE-NH2 [compound 15, H-LTIESSSDEE-NH2]” showed an IC50 of 25 µM.

Molecular target: glutathione S-transferase/human androgen receptor DNA binding domain (amino acids 505-635) (human) (UniProt P10275)
Assay: ECL competition binding assay (IGEN M8): peptide against GST-DBD binding to biotinylated ARE oligonucleotide
Details: not given

Ac-DSSSEI-NH2 (also called Cmpd No. 37) [Ac-DSSSEI-NH2] showed an IC50 of 20 µM.

Molecular target: T3, glutathione S-transferase/human …
Assay: as above
Details: not given

Going from B1 to B2, the IC50 rises from 5.6 µM to 15 µM (2.7-fold). The first is the more potent here.

B3 and B4 are within 1.5-fold of each other in IC50: 28 µM for the first, 40 µM for the second.

Going from B5 to B6, the IC50 falls from 12 µM to 4.7 µM (2.6-fold). The second is the more potent here.

Compared with Ac-LTIESSSDEA-NH2 (also called Cmpd No. 24) [Ac-LTIESSSDEA-NH2], Ac-LTIESSSDAE-NH2 (also called Cmpd No. 23) [Ac-LTIESSSDAE-NH2] is 5.4-fold higher in IC50: 2.6 µM for the first, 14 µM for the second.

Compared with Ac-LTIASSSDEE-NH2 (also called Cmpd No. 19) [Ac-LTIASSSDEE-NH2], Ac-LTIEASSDEE-NH2 (also called Cmpd No. 20) [Ac-LTIEASSDEE-NH2] is 2.7-fold higher in IC50: 6.6 µM for the first, 18 µM for the second.

Compared with Ac-LTIESASDEE-NH2 (also called Cmpd No. 21) [Ac-LTIESASDEE-NH2], Ac-DSSSEI-NH2 (also called Cmpd No. 37) [Ac-DSSSEI-NH2] is 13-fold higher in IC50: 1.5 µM for the first, 20 µM for the second.

First: B7
Second: B8
The IC50 of the first is 2.3-fold lower: 8.2 µM for the first, 19 µM for the second.

B9 and B10 are within 1.5-fold of each other in IC50: 27 µM for the first, 22 µM for the second.

Compared with B11, B12 is 15-fold lower in IC50: 63 µM for the first, 4.3 µM for the second.

First: B13
Second: B14
The IC50 of the first is 6.4-fold lower: 5.3 µM for the first, 34 µM for the second.

Molecule B15 has an IC50 of 30 µM.

Molecular target: T1, glutathione S-transferase/human …
Assay: as above
Details: not given

First: Ac-IESLSD-NH2 [Ac-IESLSD-NH2]
Second: Ac-ESSSDE-NH2 [Ac-ESSSDE-NH2]
The IC50 of the first is 1.8-fold higher: 20 µM for the first, 11 µM for the second. The second is the more potent here.
